Measured values from patent US5880134A, “Method for using ergoline compounds to effect physiological and pathological functions at the 5-HT7 receptor” (Eli Lilly and Company, priority 1997, dated 1999).

How the values were obtained:
[1] = target: T1, 5-HT7 receptor in the dog coronary artery (Canis lupus familiaris, UniProt A0A8I3S709); assay: 5-HT-induced relaxation of endothelium-denuded canine coronary artery rings precontracted with PGF2α (Schild / dissociation constant analysis); format: cell-based; details: for pEC50 values between vehicle and compound-treated tissues: 1 μM, p<0.05, Student's t-test; for blockade of 5-HT-induced relaxation: compounds III and V 1 μM, compound IV 10-100 nM, 1 hr incubation; for slope of the Schild regression: Schild plot; for slope: Table 2, Schild regression; for relaxant activity in canine coronary artery: agonist
T1 construct: The left anterior descending and circumflex coronary arteries were dissected from the hearts; from tissue; host or cells: dog left anterior descending and circumflex coronary artery rings (mongrel dogs), endothelium removed
T1 sequence (A0A8I3S709 1-435): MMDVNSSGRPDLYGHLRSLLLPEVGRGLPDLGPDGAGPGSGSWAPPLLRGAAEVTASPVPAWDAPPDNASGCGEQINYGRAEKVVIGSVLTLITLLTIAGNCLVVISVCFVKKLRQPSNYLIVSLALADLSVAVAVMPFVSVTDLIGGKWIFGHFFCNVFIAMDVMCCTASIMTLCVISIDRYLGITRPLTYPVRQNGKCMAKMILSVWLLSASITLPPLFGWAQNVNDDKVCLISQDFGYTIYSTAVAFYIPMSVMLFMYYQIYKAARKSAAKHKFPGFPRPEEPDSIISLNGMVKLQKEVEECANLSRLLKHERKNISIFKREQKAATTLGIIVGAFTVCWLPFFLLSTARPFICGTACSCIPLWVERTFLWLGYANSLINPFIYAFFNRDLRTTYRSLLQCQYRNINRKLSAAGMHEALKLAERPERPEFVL
Procedure: (§1) Hearts were obtained from mongrel dogs anesthetized with sodium pentobarbital (30 mg/kg, i.v.) and placed in oxygenated modified Krebs' solution of the following composition (millimolar): NaCl, 118; KCl, 4.6; CaCl2, 1.6; KH2 PO4, 1.2; MgSO4 1.2, glucose, 10; NaHCO3 24.8 (pH 7.4). The left anterior descending and circumflex coronary arteries were dissected from the hearts, cleaned of fat and adhering tissue and cut into rings (approximately 2-3 mm outer diameter and 4-5 mm in length). The intimal surface of the rings was gently rubbed with a pair of forceps to remove the endothelium. Tissues were then mounted between two stainless steel hooks and placed in 10 ml organ chambers constantly exposed to oxygenated modified Krebs' solution (95% O2 /5% CO2; pH 7.4; 37° C.). Tissues were equilibrated for 1 hour under an initial optimal passive force of 4 g determined previously from length-tension experiments. The buffer was replaced every 15 minutes during equilibration. Isometric force was measured with Statham UC3 force transducers connected to a Beckman dynograph (R611). After 1 hr equilibration, tissues were depolarized twice with 50 mM KCl for 30 min with a 20 min washing period between. The integrity of the endothelium was examined with acetylcholine (1 μM), bradykinin (100 nM), or the ionophore A23187 (1 μM). Rings that relaxed to these agents were not used in this study.
(§2) Cumulative concentration-response curves to 5-HT were generated in tissues incubated with either vehicle or antagonist for 1 hr. In some experiments contraction was measured in tissues under basal tone upon the cumulative addition of 5-HT. These tissues were treated with prazosin (1 μM) to block any potential a adrenoceptor activation and in the absence or presence of antagonist.
(§3) All results are expressed as mean ±S.E. where "n" represents the number of rings examined. No more than two rings were used from each animal for each compound studied. The relaxation data is expressed as percent relaxation of the contraction produced by PGF2α. The contraction data is expressed as percent of a maximal KCl (50 mM) contraction. The EC50 was the concentration of the agonist producing half-maximal response and was determined by least squares linear regression analysis of the linear portion or the agonist concentration-response curve and expressed as -log C50 (pEC50)
Apparent antagonist dissociation constants (KB) were determined for each antagonist according to the following equation: [formula] where (B) is the concentration of the antagonist and dose ratio is the EC50 of the agonist in the presence of the antagonist divided by the EC50 of the agonist in vehicle treated tissues. […] Significant differences between vehicle and antagonist treated tissues were determined with Student's t-test. The alpha value was set a priori at 0.05.
The data was also analyzed in accord with the procedure of Arunlakshana and Schild (1959). The dose ratio was determined at various concentrations of antagonist compound II or compound IV. If blockade is competitive under equilibrium conditions a plot of the logarithm (dose ratio--1) against the negative logarithm of the molar concentration of antagonist should yield a straight line whose slope is not different from unity and whose intercept on the abscissa is the pA2, which is generally considered to be equivalent to -log KB.

[2] = Bioavailability after oral administration in rats; format: in vivo, rat
[3] = target: T2, human 5-HT7 receptor (Homo sapiens, UniProt P34969); assay: Receptor binding at the human 5-HT7 receptor
T2 sequence (P34969 1-445 isoform P34969-2): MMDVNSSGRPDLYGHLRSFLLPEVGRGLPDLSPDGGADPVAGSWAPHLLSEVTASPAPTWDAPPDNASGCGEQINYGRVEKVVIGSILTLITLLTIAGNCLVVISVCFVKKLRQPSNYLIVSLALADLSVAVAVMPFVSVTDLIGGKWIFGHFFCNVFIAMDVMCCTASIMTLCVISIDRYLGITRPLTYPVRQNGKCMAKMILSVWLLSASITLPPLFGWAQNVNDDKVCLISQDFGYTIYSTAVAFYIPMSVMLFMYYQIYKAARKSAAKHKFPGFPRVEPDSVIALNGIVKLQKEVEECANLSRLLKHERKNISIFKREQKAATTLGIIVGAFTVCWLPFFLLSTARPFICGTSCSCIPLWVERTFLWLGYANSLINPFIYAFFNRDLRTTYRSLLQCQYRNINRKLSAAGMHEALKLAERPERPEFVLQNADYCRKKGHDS
Excerpt: The general chemical structure for three particularly useful compounds of the invention (compounds III-V) are shown below: [drawing 3]
The KD and --logKB value for compound II, a known 5-HT7 antagonist, and two compounds employed by the present invention, compound III and IV, are shown in Table 1.

[4] = system: 5-HT7 receptor; details: expressed in mammalian cells; cited from earlier work
[5] = system: contractile 5-HT receptor in the canine coronary artery; assay: Contraction of endothelium-denuded canine coronary artery under basal tone; format: cell-based
Procedure: as §1
as §2, with “Tissues prepared as described in Example 1 were precontracted with PGF2α (10 μM) which produced a tonic contraction that remained at or above 92.8±2.1% (n=14) of the original maximum force throughout the experiment. Cumulative” for “Cumulative”
as §3

[6] = system: rat 5-HT7 receptor; details: cited from earlier work; for pharmacological profile (rank order of affinity): rat 5-HT7, [125I]LSD and [3H]5-HT
[7] = target: T2, human 5-HT7 receptor; details: cited from earlier work; for pharmacological profile (rank order of affinity): human 5-HT7, [3H]5-HT competition
[8] = system: contractile 5-HT receptor in the canine coronary artery; details: agonist alone, vessels under basal tone, as previously reported (Cushing et al.); cited from earlier work
[9] = compared with ester compounds II and V

**Q.** Which Kb [1] does the source give for `COC1CCC(OC(=O)C2CC3c4cccc5c4c(cn5C(C)C)CC3N(C)C2)CC1` (stereo not shown) [Compound V] here?
**A.** 398 nM

**Q.** And the “pEC50 values between vehicle and compound-treated tissues” value [1]?
**A.** significantly different

**Q.** And the “blockade of 5-HT-induced relaxation” value ([1]; compound II 0.3-10 μM)?
**A.** blocked 5-HT-induced relaxation in an apparently competitive manner

**Q.** And the bioavailability ([2]; compared with compound II)?
**A.** higher bioavailability than compound II

**Q.** Which results are given for `CC(C)n1cc2c3c(cccc31)C1CC(C(=O)NC3CCCCC3)CN(C)C1C2` (stereo not shown) [Compound III]?
**A.** binding affinity to the human 5-HT7 receptor (in words) [3]: high binding affinity; Kb [1]: 200 nM; pEC50 values between vehicle and compound-treated tissues [1]: significantly different; blockade of 5-HT-induced relaxation ([1]; compound II 0.3-10 μM): blocked 5-HT-induced relaxation in endothelium-denuded canine coronary artery rings in a competitive manner; bioavailability [2, 9]: greater bioavailability than the ester compounds II and V

**Q.** With `CN(C)CCC=C1c2ccccc2CCc2ccccc21` [amitriptyline] as the compound, how does the “affinity for the 5-HT7 receptor” value [4] read?
**A.** high affinity

**Q.** For `CCCCC[C@H](O)/C=C/[C@@H]1[C@@H](C/C=C\CCCC(=O)O)[C@@H](O)C[C@H]1O` [PGF2α], which “contraction retained throughout the experiment” value ([1]; PGF2α 10 μM, of the original maximum force, n=14) is on record?
**A.** ≥ 92.8±2.1%

**Q.** Which results are given for `CC(C)n1cc2c3c(cccc31)C1CC(C(=O)NC3CCCC3O)CN(C)C1C2` (stereo not shown) [Compound IV]?
**A.** binding affinity to the human 5-HT7 receptor (in words) [3]: high binding affinity; Kb [1]: 5.01 nM; slope of the Schild regression [1]: 0.98; slope [1]: 0.98; blockade of 5-HT-induced relaxation ([1]; compound II 0.3-10 μM): blocked 5-HT-induced relaxation in endothelium-denuded canine coronary artery rings in a competitive manner; effect on contractile response produced by 5-HT and 5-MeOT ([5]; 1 μM, basal tone): not affecting the contractile response; effect on relaxant phase of 5-HT and 5-MeOT response ([5]; 1 μM, basal tone): significantly attenuated the relaxant phase; effect on sumatriptan-induced contraction ([5]; 1 μM, basal tone, FIG. 7): did not significantly affect sumatriptan-induced contraction; bioavailability [2, 9]: greater bioavailability than the ester compounds II and V

**Q.** With `CN1CCN(C2=Nc3cc(Cl)ccc3Nc3ccccc32)CC1` [clozapine] as the compound, how does the “affinity for the 5-HT7 receptor” value [4] read?
**A.** high affinity

**Q.** What does the source list for `CC(O)C(C)OC(=O)C1CC2c3cccc4c3c(cn4C(C)C)CC2N(C)C1` (stereo not shown) [Compound II]?
**A.** Kb [1]: 316 nM; Schild slope versus unity ([1]; FIG. 1 lower panel): not significantly different from unity; slope of the Schild regression [1]: 0.92; slope [1]: 0.92; maximum relaxant response to 5-HT ([1]; compound II 0.3-10 μM): did not alter the maximum relaxant response; blockade of 5-HT-induced relaxation ([1]; compound II 0.3-10 μM): shifted the concentration-response curve to 5-HT significantly to the right

**Q.** Which “pharmacological profile (rank order of affinity)” value (“pharmacological profile” for short) [6] does the source give for `CCCN(CCC)C1CCc2cccc(O)c2C1` (stereo not shown) [8-OH DPAT, 8-hydroxy-2-(di-n-propyl-amino)-tetralin] here?
**A.** 5CT>5MeOT≥5HT>8-OH-DPAT

**Q.** What about the “pharmacological profile” value [7] of the same compound?
**A.** 5CT>5 MeOT≥5HT>8-OH DPAT

**Q.** For `CN1CCN(C2=Nc3ccccc3Oc3ccc(Cl)cc32)CC1` [loxapine], which “affinity for the 5-HT7 receptor” value [4] is on record?
**A.** high affinity

**Q.** Which “contractile response of agonist” value [8] does the source give for `COc1ccc2[nH]cc(CCN)c2c1` [Compound 5-MeOT, 5-methoxytryptamine] here?
**A.** produced a biphasic contractile response

**Q.** And the “pharmacological profile” value [6]?
**A.** 5CT>5MeOT≥5HT>8-OH-DPAT

**Q.** What about the “pharmacological profile” value [7] of the same compound?
**A.** 5CT>5 MeOT≥5HT>8-OH DPAT

**Q.** For `NCCc1c[nH]c2ccc(C(N)=O)cc12` [Compound 5-CT, 5-carboxamidotryptamine], which “relaxant activity in canine coronary artery” value [1] is on record?
**A.** potent relaxant agonist

**Q.** And the “affinity of canine coronary artery relaxant receptor for 5CT versus serotonin” value [1]?
**A.** highest affinity for 5-HT7 receptors

**Q.** And the “affinity of canine coronary artery relaxant receptor for 5CT versus serotonin” value ([1]; listed as 5CT)?
**A.** greater affinity for 5CT than for the endogenous agonist serotonin

**Q.** And the “pharmacological profile” value [6]?
**A.** 5CT>5MeOT≥5HT>8-OH-DPAT

**Q.** And the “binding affinity of 5CT over serotonin” value ([6]; rat 5-HT7)?
**A.** higher binding affinity of 5CT over serotonin

**Q.** And the “pharmacological profile” value [7]?
**A.** 5CT>5 MeOT≥5HT>8-OH DPAT

**Q.** And the “affinity of 5CT over serotonin” value ([7]; human 5-HT7)?
**A.** greater affinity of 5CT over serotonin

**Q.** What about the contraction by agonist ([5]; agonist alone, under basal tone or precontracted) of the same compound?
**A.** did not significantly contract coronary arteries

**Q.** What about the “contraction by agonist in the presence of compound IV” value ([5]; compound IV 1 μM, basal tone) of the same compound?
**A.** concentration-dependently contracted canine coronary artery

**Q.** With `CNS(=O)(=O)Cc1ccc2[nH]cc(CCN(C)C)c2c1` [sumatriptan] as the compound, how does the “relaxant activity in canine coronary artery” value [1] read?
**A.** lacking relaxant activity

**Q.** Which results are given for `NCCc1c[nH]c2ccc(O)cc12` [Compound 5-HT, 5-hydroxytryptamine]?
**A.** contractile response of agonist [8]: produced a biphasic contractile response; pharmacological profile (rank order of affinity) [6]: 5CT>5MeOT≥5HT>8-OH-DPAT; pharmacological profile (rank order of affinity) [7]: 5CT>5 MeOT≥5HT>8-OH DPAT
